The values that follow are results of earlier work, collected in article PMC11573584, “Thanatin and vinyl sulfide analogues as narrow spectrum antimicrobial peptides that synergise with polymyxin B” (Frontiers in Pharmacology, 2024).

Where two headings read alike, the source gives them in different places. Marks after values point to notes of the source that are not given here.

For one data set, the system named is S. aureus ATCC 25923. The conditions noted are these: non-cation adjusted media, ref Sinha et al. (2022), cited from earlier work. From the text:
TABLE 1 Minimum Inhibitory Concentrations (MICs) of thanatin* (5) and similar analogues against a variety of pathogens. | column: Minimum inhibitory concentration (µM) / Thanatin ^a ^, ^b (1); Minimum inhibitory concentration (µM) / Thanatin M21F ^b (4) || TABLE 2 Minimum Inhibitory Concentrations (MICs) of thanatin* (5) and analogues (8–11) towards a variety of pathogens. | column: Minimum inhibitory concentration (µM) / 1 (Thanatin) ^a

The test system of the next data set is P. aeruginosa ATCC 27853. To be noted: non-cation adjusted media, ref Sinha et al. (2022); cited from earlier work. From the text: (§1) TABLE 1 Minimum Inhibitory Concentrations (MICs) of thanatin* (5) and similar analogues against a variety of pathogens. | column: Minimum inhibitory concentration (µM) / Thanatin ^a ^, ^b (1); Minimum inhibitory concentration (µM) / Thanatin M21F ^b (4)

The next data set deals with E. coli BL21. To be noted: non-cation adjusted media, ref Sinha et al. (2022); cited from earlier work.
Text: as §1

For another data set, the system named is P. aeruginosa PAO1. To be noted: ref Sinha et al. (2022); cited from earlier work. An excerpt:
TABLE 2 Minimum Inhibitory Concentrations (MICs) of thanatin* (5) and analogues (8–11) towards a variety of pathogens. | column: Minimum inhibitory concentration (µM) / 1 (Thanatin) ^a

A further data set concerns E. coli ATCC 25922. To be noted: non-cation adjusted media, ref Wu et al. (2013); cited from earlier work. An excerpt:
TABLE 1 Minimum Inhibitory Concentrations (MICs) of thanatin* (5) and similar analogues against a variety of pathogens. | column: Minimum inhibitory concentration (µM) / Thanatin ^a ^, ^b (1); Minimum inhibitory concentration (µM) / S-Thanatin ^a (3) || TABLE 2 Minimum Inhibitory Concentrations (MICs) of thanatin* (5) and analogues (8–11) towards a variety of pathogens. | column: Minimum inhibitory concentration (µM) / 1 (Thanatin) ^a

Take thanatin M21F [Thanatin M21F (4)]: the “Minimum inhibitory concentration (MIC)” value in the data set with S. aureus ATCC 25923, with P. aeruginosa ATCC 27853 and with E. coli BL21 was 0.5 µM in each case.

Thanatin [Thanatin (1)]: the “Minimum inhibitory concentration (MIC)” value with P. aeruginosa PAO1 is recorded as 2 µM; in the data set with S. aureus ATCC 25923 (listed as 1 (Thanatin)), 8 µM; in the data set with S. aureus ATCC 25923 it was 8 ^b µM; with P. aeruginosa ATCC 27853 it was 1 ^b µM; in the data set with E. coli BL21 it was 0.5 ^b µM; in the data set with E. coli ATCC 25922, 3.2 ^a µM.
